US10105365B2, “Solid antiviral dosage forms” (AbbVie Inc., priority 2014, dated 2018)

Assays:
[1] = Sink Conditions dissolution testing of Formulation C5-12; format: physicochemical; details: N = 6
Protocol: The release profiles of Formulation C5-12 of Example 1 were evaluated in a Sink Conditions dissolution study. The study was conducted in 900 mL of dissolution medium using a standard USP dissolution Apparatus 2 (paddle) operating at 100 RPM at 37±0.5° C. The dissolution medium was a 0.05 M sodium phosphate buffer pH 6.8 with 15 mM cTAB as a surfactant.

[2] = Human pharmacokinetic study, Example 4 Arm II (single dose, crossover); format: in vivo; details: both sexes, human, oral, Example 4 Arm II, single dose, non-fasting, N = 13; for half-life / AUC(0-t) / AUC(0-inf) / Tmax: blood; for AUC(0-t): read-out: AUCt, geometric mean; for AUC(0-inf): read-out: AUC∞, geometric mean; for Tmax: read-out: Tmax; for concentration at 24 h / Cmax: in vivo; for concentration at 24 h: read-out: C24, geometric mean; for Cmax: read-out: Cmax, geometric mean
Procedure, shortened: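 Healthy adult men and women (N=30 across Arms I and II) randomised to crossover regimen sequences; single oral dose with ~240 mL water ~30 min after a standardised breakfast; one regimen given an evening dose after a snack.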

[3] = Human pharmacokinetic study, Example 4 Arm III (14-day multiple dose, steady state); format: in vivo
[4] = Human pharmacokinetic study, Example 5 Arm I (single dose, replicated crossover); format: in vivo; details: both sexes, human, oral, single dose, non-fasting; for half-life / AUC(0-t) / AUC(0-inf) / Tmax: blood; for Cmax: in vivo
Procedure, shortened: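 Single-dose, randomized, four-period, two-sequence replicated crossover in 88 healthy adults, periods separated by at least 10 days. Oral dosing in the morning with about 240 mL water, about 30 min after starting a standardized breakfast. Serial blood samples collected over 72 h after each dose.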

[5] = Human pharmacokinetic study, Example 5 Arm II (multiple dose, crossover); format: in vivo; details: Example 5 Arm II; for β, geometric mean / half-life / AUC / concentration at 24 h / Cmax / Tmax: multiple dose 14 days, non-fasting, N = 63; for half-life / AUC / concentration at 24 h / Cmax / Tmax: both sexes, human, blood, oral; for AUC: read-out: AUC24, geometric mean; for concentration at 24 h: read-out: C24, geometric mean; for Cmax: read-out: Cmax, geometric mean; for Tmax: read-out: Tmax, first value (geometric mean)
Procedure, shortened: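 Multiple-dose two-period randomized crossover in 66 healthy adults: oral dosing for 14 days per period, ≥10-day separation, taken with ~240 mL water about 30 min after a standardized breakfast. Serial blood samples for pharmacokinetics were collected 72 hours after dosing in each period.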

[6] = Solubility (general statement); format: physicochemical
[7] = Permeability (general statement); format: in vitro ADME; details: free acid of Compound 4; gastrointestinal tract
[8] = 4 hours, pH 6.8 buffer, 15 mM cTAB
[9] = 6 hours, pH 6.8 buffer, 15 mM cTAB
[10] = 8 hours, pH 6.8 buffer, 15 mM cTAB
[11] = 12 hours, pH 6.8 buffer, 15 mM cTAB
[12] = 16 hours, pH 6.8 buffer, 15 mM cTAB
[13] = 24 hours, pH 6.8 buffer, 15 mM cTAB
[14] = 30 hours, pH 6.8 buffer, 15 mM cTAB
[15] = 3 Formulation C5-12 tablets, Regimen E (C5-12): three Formulation C5-12 tablets in the morning
[16] = Regimen A (reference regimen): two Triple Tablets + one Single Tablet morning, one Single Tablet evening
[17] = Formulation C5-12, Day 14 versus Day 1
[18] = human, in vivo, oral, 3 Formulation C5-12 tablets daily, three Formulation C5-12 tablets daily for 14 days, non-fasting, Day 14, N = 14
[19] = three Formulation C5-12 tablets daily for 14 days, non-fasting, Day 14, N = 14
[20] = Regimen B (reference regimen): two Triple Tablets + one Single Tablet morning, one Single Tablet evening
[21] = 3 film-coated Formulation C5-12 tablets daily, Regimen A (C5-12): three film-coated Formulation C5-12 tablets daily

% Released ([1]; 1 hour, 900 mL 0.05 M sodium phosphate buffer pH 6.8, 15 mM cTAB, USP Apparatus 2, 100 RPM, 37 °C): 1% | mg Released ([1]; 1 hour, pH 6.8 buffer, 15 mM cTAB): 2.3 mg | % Released [1, 8]: 11% | mg Released [1, 8]: 25.7 mg | % Released [1, 9]: 18% | mg Released [1, 9]: 42.0 mg | % Released [1, 10]: 25% | mg Released [1, 10]: 58.3 mg | % Released [1, 11]: 39% | mg Released [1, 11]: 91.0 mg | % Released [1, 12]: 51% | mg Released [1, 12]: 119.0 mg | % Released [1, 13]: 70% | mg Released [1, 13]: 163.3 mg | % Released [1, 14]: 81% | mg Released [1, 14]: 189.0 mg | half-life [2, 15]: 6.4 h | AUC(0-t) [2, 15]: 18400 ng·h/mL | AUC(0-inf) [2, 15]: 18600 ng·h/mL | Tmax [2, 15]: 9.7 h | half-life [2, 16]: 5.5 h | AUC(0-t) [2, 16]: 18200 ng·h/mL | AUC(0-inf) [2, 16]: 18400 ng·h/mL | Tmax [2, 16]: 3.1 h | concentration at 24 h [2, 15]: 290 ng/mL | Cmax [2, 15]: 1350 ng/mL | concentration at 24 h [2, 16]: 361 ng/mL | Cmax [2, 16]: 1240 ng/mL | AUC24, RATIO [3, 17]: 0.88 | C24, RATIO [3, 17]: 0.63 | Cmax, RATIO [3, 17]: 0.95 | Tmax ([3]; human, in vivo, oral, 3 Formulation C5-12 tablets daily, three Formulation C5-12 tablets daily for 14 days, non-fasting, Day 1, N = 14): 9 h | AUC ([3]; human, in vivo, oral, 3 Formulation C5-12 tablets daily, three Formulation C5-12 tablets daily for 14 days, non-fasting, Day 1, N = 14, read-out: AUC24, geometric mean): 13600 ng·h/mL | concentration at 24 h ([3]; human, in vivo, oral, 3 Formulation C5-12 tablets daily, three Formulation C5-12 tablets daily for 14 days, non-fasting, Day 1, N = 14, read-out: C24, geometric mean): 272 ng/mL | Cmax ([3]; human, in vivo, oral, 3 Formulation C5-12 tablets daily, three Formulation C5-12 tablets daily for 14 days, non-fasting, Day 1, N = 14, read-out: Cmax, geometric mean): 1320 ng/mL | Tmax [3, 18]: 9.4 h | half-life [3, 18]: 5.9 h | AUC ([3]; human, in vivo, oral, 3 Formulation C5-12 tablets daily, three Formulation C5-12 tablets daily for 14 days, non-fasting, Day 14, N = 14, read-out: AUC24, geometric mean): 12000 ng·h/mL | concentration at 24 h ([3]; human, in vivo, oral, 3 Formulation C5-12 tablets daily, three Formulation C5-12 tablets daily for 14 days, non-fasting, Day 14, N = 14, read-out: C24, geometric mean): 172 ng/mL | Cmax ([3]; human, in vivo, oral, 3 Formulation C5-12 tablets daily, three Formulation C5-12 tablets daily for 14 days, non-fasting, Day 14, N = 14, read-out: Cmax, geometric mean): 1250 ng/mL | C24, arithmetic mean, % CV [3, 19]: (210,61) ng/mL | β [3, 19]: 0.117 h⁻¹ | half-life ([4]; 3 film-coated Formulation C5-12 tablets, Regimen A (C5-12): three film-coated Formulation C5-12 tablets, N = 172): 6.91 h | AUC(0-t) ([4]; 3 film-coated Formulation C5-12 tablets, Regimen A (C5-12): three film-coated Formulation C5-12 tablets, N = 172, read-out: AUCt, geometric mean): 12700 ng·h/mL | AUC(0-inf) ([4]; 3 film-coated Formulation C5-12 tablets, Regimen A (C5-12): three film-coated Formulation C5-12 tablets, N = 172, read-out: AUC∞, geometric mean): 12900 ng·h/mL | Tmax ([4]; 3 film-coated Formulation C5-12 tablets, Regimen A (C5-12): three film-coated Formulation C5-12 tablets, N = 172, read-out: Tmax, first value (geometric mean)): 8 h | half-life ([4]; Regimen B (reference regimen): two Triple Tablets + one Single Tablet morning, one Single Tablet evening, N = 171): 5.8 h | AUC(0-t) ([4]; Regimen B (reference regimen): two Triple Tablets + one Single Tablet morning, one Single Tablet evening, N = 171, read-out: AUCt, geometric mean): 14800 ng·h/mL | AUC(0-inf) ([4]; Regimen B (reference regimen): two Triple Tablets + one Single Tablet morning, one Single Tablet evening, N = 171, read-out: AUC∞, geometric mean): 14900 ng·h/mL | Tmax ([4]; Regimen B (reference regimen): two Triple Tablets + one Single Tablet morning, one Single Tablet evening, N = 171, read-out: Tmax, first value (geometric mean)): 4 h | Cmax ([4]; 3 film-coated Formulation C5-12 tablets, Regimen A (C5-12): three film-coated Formulation C5-12 tablets, N = 172, read-out: Cmax, geometric mean): 1060 ng/mL | Cmax ([4]; Regimen B (reference regimen): two Triple Tablets + one Single Tablet morning, one Single Tablet evening, N = 171, read-out: Cmax, geometric mean): 1030 ng/mL | β, geometric mean ([5]; Regimen A (C5-12): three film-coated Formulation C5-12 tablets daily): 0.104 h⁻¹ | β, geometric mean [5, 20]: 0.122 h⁻¹ | Exposures (Cmax,ss and AUC24,ss) versus the reference regimen ([5]; Formulation C5-12, point estimate and 90% confidence interval for the GMR within 0.80-1.25): bioequivalent | C24,ss lower than C24,ss (Ctrough) for the reference regimen ([5]; Formulation C5-12 relative to the reference regimen): 29% | half-life [5, 21]: 6.2 h | AUC [5, 21]: 8810 ng·h/mL | concentration at 24 h [5, 21]: 116 ng/mL | Cmax [5, 21]: 799 ng/mL | Tmax [5, 21]: 8 h | half-life [5, 20]: 5.5 h | AUC [5, 20]: 9770 ng·h/mL | concentration at 24 h [5, 20]: 162 ng/mL | Cmax [5, 20]: 879 ng/mL | Tmax [5, 20]: 4 h | Solubility ([6]; aqueous): low solubility | Solubility in the gastrointestinal tract ([6]; free acid of Compound 4): poor solubility | Permeability [7]: good permeability
Structure (SMILES): COc1c(-c2ccc3cc(NS(C)(=O)=O)ccc3c2)cc(-n2ccc(=O)[nH]c2=O)cc1C(C)(C)C [Compound 4, N-(6-(3-tert-butyl-5-(2,4-dioxo-3,4-dihydropyrimidin-1(2H)-yl)-2-methoxyphenyl)naphthalen-2-yl)methanesulfonamide]
